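These data come from cells grown in 96-well plates and exposed to compound for 48 hours at five concentrations. TGI denotes the concentration required for complete inhibition of growth.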
Columns and labels:
Assay in all cases: NCI-60 cell line screen, 48 h
MALME-3M melanoma = tested on: MALME-3M melanoma
SN12C renal = tested on: SN12C renal
OVCAR-3 ovarian = tested on: OVCAR-3 ovarian
SF-539 CNS = tested on: SF-539 CNS
K-562 leukemia = tested on: K-562 leukemia
IGROV1 ovarian = tested on: IGROV1 ovarian
786-0 renal = tested on: 786-0 renal
OVCAR-8 ovarian = tested on: OVCAR-8 ovarian
SK-MEL-5 melanoma = tested on: SK-MEL-5 melanoma
SF-268 CNS = tested on: SF-268 CNS
SK-OV-3 ovarian = tested on: SK-OV-3 ovarian
SK-MEL-2 melanoma = tested on: SK-MEL-2 melanoma

Compound | TGI (MALME-3M melanoma) [µM] | TGI (SN12C renal) [µM] | TGI (OVCAR-3 ovarian) [µM] | TGI (SF-539 CNS) [µM] | TGI (K-562 leukemia) [µM] | TGI (IGROV1 ovarian) [µM] | TGI (786-0 renal) [µM] | TGI (OVCAR-8 ovarian) [µM] | TGI (SK-MEL-5 melanoma) [µM] | TGI (SF-268 CNS) [µM] | TGI (SK-OV-3 ovarian) [µM] | TGI (SK-MEL-2 melanoma) [µM]
Cc1cc(C)cc(Nc2cc(=O)[nH]c(=O)[nH]2)c1 | > 100 | > 100 | > 100 | > 100 | > 100 | > 100 | > 100 | > 100 | > 100 | > 100 | – | –
Cc1ccn2c(=O)cc(-c3ccccc3)nc2c1 | > 100 | > 100 | > 100 | > 100 | > 100 | > 100 | > 100 | > 100 | > 100 | > 100 | > 100 | –
Cc1ccc2nc(Cl)c(/C=N/N3C(=O)/C(=C/c4ccccc4S)N=C3c3ccccc3)cc2c1 | – | > 100 | 28.2 | 43 | 49 | > 100 | > 100 | > 100 | > 100 | > 100 | > 100 | 52.2
CC(=O)c1ccc2c3c1[C@@H]1O[C@@H]1c1cccc(c1-3)[C@@H]1O[C@H]21 | 20.3 | 23.9 | 30.4 | – | > 100 | 2.44 | 24.9 | 18.1 | 26 | 27.4 | 76.1 | > 57.1
O=C1c2ccccc2-c2nc(-c3cccc([N+](=O)[O-])c3)nnc21 | 38.4 | 45.7 | – | > 100 | > 100 | > 100 | > 100 | 86.7 | 7.65 | > 100 | > 100 | 49.2
CCCSc1ccc2[nH]c(/N=C/c3ccco3)cc2c1 | > 100 | > 100 | > 100 | 42.5 | – | > 100 | > 100 | > 100 | 32.6 | > 100 | > 100 | 59
O=C(Cc1ccccc1)NN1C(=O)/C(=C\c2cccc(O)c2)SC1=Nc1ccccc1 | – | > 100 | > 100 | > 100 | – | > 100 | > 100 | > 100 | > 100 | > 100 | > 100 | > 100
c1cc2nnnn2nc1N1CCCC1 | – | > 100 | – | > 100 | > 100 | – | > 100 | > 100 | > 100 | > 100 | > 100 | > 100
O=C(OCC1OC2OC(c3ccccc3)(n3ccc4c([N+](=O)[O-])ccnc43)OC2C1OC(=O)c1ccccc1)c1ccccc1 (configuration not stated) | > 100 | > 100 | > 100 | – | > 100 | > 100 | > 100 | > 100 | > 100 | – | > 100 | > 100
O=c1nc2c(c(-c3ccccc3Cl)[nH]1)COC/C2=C\c1ccccc1Cl | – | > 100 | > 100 | > 100 | – | > 100 | > 100 | > 100 | > 100 | > 100 | > 100 | > 100
CC1CCOc2ccc(cc2)C=Nc2ccc(cc2)CCc2ccc(cc2)N=Cc2ccc(cc2)OCC1 (configuration not stated) | > 100 | > 100 | > 100 | > 100 | > 100 | > 100 | > 100 | > 100 | > 100 | > 100 | – | > 100
O=C1NC(N/N=C/C(O)C(O)C(O)CO)=N/C1=C\c1ccco1 (configuration not stated) | > 100 | > 100 | > 100 | > 100 | > 100 | > 100 | > 100 | > 100 | > 100 | > 100 | > 100 | –
Cc1cn(C(Cc2ccccc2)OCCO)c(=O)[nH]c1=O (configuration not stated) | – | > 100 | > 100 | > 100 | > 100 | > 100 | > 100 | > 100 | > 100 | – | – | > 100
CCn1nc2c3c(ncn3C(C)(C)O2)c1=O | > 100 | > 100 | – | – | > 100 | > 100 | > 100 | – | > 100 | > 100 | > 100 | > 100
C1CNCCNCCN1 | – | > 100 | > 100 | > 100 | > 100 | > 100 | > 100 | > 100 | > 100 | > 100 | – | > 100
Cc1cn(C2CC(n3cc(Cn4cc(Br)c(=O)[nH]c4=O)nn3)C(CO)O2)c(=O)[nH]c1=O (configuration not stated) | > 100 | > 100 | > 100 | > 100 | – | > 100 | > 100 | > 100 | > 100 | > 100 | > 100 | > 100

Compound | TGI (MALME-3M melanoma) [µM] | TGI (SN12C renal) [µM] | TGI (OVCAR-3 ovarian) [µM] | TGI (SF-539 CNS) [µM] | TGI (K-562 leukemia) [µM] | TGI (IGROV1 ovarian) [µM] | TGI (786-0 renal) [µM] | TGI (OVCAR-8 ovarian) [µM] | TGI (SK-MEL-5 melanoma) [µM] | TGI (SF-268 CNS) [µM] | TGI (SK-OV-3 ovarian) [µM] | TGI (SK-MEL-2 melanoma) [µM]
CC1(CF)SCc2nc3ccccc3n21 (configuration not stated) | > 100 | > 100 | > 100 | > 100 | – | > 100 | > 100 | > 100 | > 100 | > 100 | > 100 | –
O=C1Nc2c(ccc(Cl)c2I)C1=O | 28.3 | 30.9 | 55.7 | – | 73.2 | 30.7 | 28.2 | 76.7 | 29.5 | 39.4 | 48.3 | 27.7
O=C(NCCCCCCNCc1cccc2ccccc12)Nc1cccc2ccccc12 | > 100 | > 100 | > 100 | > 100 | > 100 | > 100 | > 100 | > 100 | > 100 | > 100 | – | > 100
CN(O)C(=O)c1cccc(Cl)c1 | – | > 100 | > 100 | > 100 | > 100 | > 100 | > 100 | > 100 | > 100 | > 100 | > 100 | > 100
CNC(=O)Oc1ccc(-c2cn3cc(OC(=O)NC)ccc3n2)cc1 | – | > 100 | > 100 | > 100 | > 100 | > 100 | > 100 | > 100 | > 100 | 75 | > 100 | > 100
CCN1C(=O)C(=C/C=C/c2ccc([N+](=O)[O-])cc2)C(=O)N(CC)C1=S | – | 57.3 | 32.9 | 40.1 | 48.4 | 32.6 | 34.3 | 39.7 | 42.8 | 53 | > 100 | 65.3
COC(=O)C1=CC(=O)OC1(OO)c1ccccc1 (configuration not stated) | > 100 | > 100 | > 100 | > 100 | > 100 | > 100 | > 100 | > 100 | > 100 | – | > 100 | > 100
O=C(O)CC[N+]1=CCC(c2ccccc2)(c2ccccc2)O1 | – | > 100 | > 100 | > 100 | > 100 | > 100 | > 100 | > 100 | > 100 | > 100 | > 100 | > 100
O=C(Cc1ccccc1)NN1C(=O)C(Cl)C1c1ccc(O)cc1 (configuration not stated) | > 100 | > 100 | > 100 | – | > 100 | > 100 | > 100 | > 100 | > 100 | > 100 | > 100 | > 100
CN(C)Cc1cc(C(=O)/C=C/c2ccccc2Cl)cc(CN(C)C)c1O | 23.5 | 23.6 | 30.5 | 34 | 24.3 | 28 | 21.4 | 31.9 | 26.1 | 61.3 | – | –
CC(C)C(=O)/C=C/c1ccc(Br)cc1 | – | 28.5 | 27.3 | 35.5 | > 100 | 34.5 | 23.2 | 62.9 | 26.6 | 48.4 | 49.6 | 29.7
Nc1c(Cl)ncnc1N[C@@H]1C[C@H]1CO | – | > 100 | > 100 | > 100 | > 100 | > 100 | > 100 | > 100 | > 100 | > 100 | – | > 100
CC1=COC(C)(C=C(C#N)C#N)CC1 (configuration not stated) | > 100 | > 100 | – | 51.1 | > 100 | > 100 | > 100 | > 100 | > 100 | > 100 | > 100 | –
CCCCCCCCCCCCCCCCCC(=O)O[C@H](COC(=O)CCCCCCCCCCC)COC(=O)CCCCCCCCCCCCCCC | > 100 | > 100 | > 100 | – | > 100 | > 100 | > 100 | > 100 | > 100 | > 100 | > 100 | –
CC(=O)Nc1cc2c(s1)CCC1CC(=O)NN=C21 (configuration not stated) | > 100 | > 100 | > 100 | > 100 | > 100 | > 100 | > 100 | > 100 | > 100 | > 100 | – | > 100
COC(=O)C1=C2SCc3cccc(c3)CSC3=C(C(=O)OC)SC(=C(S2)S1)S3 | – | > 100 | > 100 | – | > 100 | – | > 100 | – | > 100 | – | > 100 | > 100

From PubChem BioAssay (NCI)
